Experiment: Solubility in pharmaceutically acceptable carriers/excipients
Type: physicochemical
Procedure: The solubility of (8R,9S,10R,13S,14S,17S)-10,13-dimethyl-3-oxo-1,2,6,7,8,9,11,12,14,15,16,17-dodecahydrocyclopenta[a]phenanthren-17-yl tridecanoate was determined in the solvents (typical pharmaceutical carriers) listed below.

Which “Solubility mg/g at ~20-23° C.” value (solvent Benzyl Alcohol) does the source give for `CCCCCCCCCCCCC(=O)O[C@H]1CC[C@H]2[C@@H]3CCC4=CC(=O)CC[C@]4(C)[C@H]3CC[C@]12C` [testosterone tridecanoate, (8R,9S,10R,13S,14S,17S)-10,13-dimethyl-3-oxo-1,2,6,7,8,9,11,12,14,15,16,17-dodecahydrocyclopenta[a]phenanthren-17-yl tridecanoate] here?
Its value is 322 mg/g.

And the “Solubility mg/g at ~20-23° C.” value (solvent Benzyl Benzoate)?
Its value is 223 mg/g.

What about the “Solubility mg/g at ~20-23° C.” value (solvent Castor Oil) of the same compound?
The value was 55 mg/g.

And the “Solubility mg/g at ~20-23° C.” value (solvent Corn glycerides -Maisine)?
The value was 77 mg/g.

What about the “Solubility mg/g at ~20-23° C.” value (solvent Corn oil) of the same compound?
Its value is 35 mg/g.

And the “Solubility mg/g at ~20-23° C.” value (solvent Cremophor RH40)?
Its value is 10 mg/g.

What about the “Solubility mg/g at ~20-23° C.” value (solvent Ethanol) of the same compound?
The value was 27 mg/g.

What about the “Solubility mg/g at ~20-23° C.” value (solvent Fatty Acid -Oleic acid) of the same compound?
Its value is 114 mg/g.

And the “Solubility mg/g at ~20-23° C.” value (solvent Medium chain glycerides-Capmul)?
Its value is 68 mg/g.

And the “Solubility mg/g at ~20-23° C.” value (solvent Olive Oil)?
The value was 38 mg/g.

And the “Solubility mg/g at ~20-23° C.” value (solvent Peppermint Oil)?
The value was ~200 mg/g.
